Assay results from PubChem BioAssay AID248 (DTP/NCI, 2004).
Where “and” joins values, the source holds several entries; their conditions need not be identical. Identical values can stand only once. Inconclusive results and toxic doses are left out. Rule as the data show it: active = T/C of 150% or more; inactive = T/C below 125%.

Tested on: L1210 leukemia ip in BDF1 mice, survival T/C
Test: NCI In Vivo Anticancer Drug Screen. Data for tumor model L1210 Leukemia (intraperitoneal) in B6D2F1 (BDF1) mice
Conditions: endpoint: mean survival time, higher = longer survival
How it was run: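 Each compound was tested against a transplantable tumor grown in mice. The endpoint was survival, with treated animals benchmarked against vehicle controls as a simple ratio.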

[1] = dose: 100.0 mg/kg/injection, schedule: Q04DX002 (ip), vehicle: Klucel (hydroxypropylcellulose) (HPC)
[2] = dose: 200.0 mg/kg/injection, schedule: Q04DX002 (ip), vehicle: Klucel (hydroxypropylcellulose) (HPC)
[3] = dose: 400.0 mg/kg/injection, schedule: Q04DX002 (ip), vehicle: Klucel (hydroxypropylcellulose) (HPC)
[4] = dose: 100.0 mg/kg/injection, schedule: Q01DX001 (ip), vehicle: Klucel (hydroxypropylcellulose) (HPC)
[5] = dose: 200.0 mg/kg/injection, schedule: Q01DX001 (ip), vehicle: Klucel (hydroxypropylcellulose) (HPC)
[6] = dose: 100.0 mg/kg/injection, schedule: Q01DX009 (ip), vehicle: saline with Tween-80
[7] = dose: 200.0 mg/kg/injection, schedule: Q01DX009 (ip), vehicle: saline with Tween-80
[8] = dose: 50.0 mg/kg/injection, schedule: Q01DX001 (ip), vehicle: saline
[9] = dose: 100.0 mg/kg/injection, schedule: Q01DX001 (ip), vehicle: saline
[10] = dose: 200.0 mg/kg/injection, schedule: Q01DX001 (ip), vehicle: saline
[11] = dose: 400.0 mg/kg/injection, schedule: Q01DX001 (ip), vehicle: saline
[12] = dose: 100.0 mg/kg/injection, schedule: Q01DX009 (ip), vehicle: Klucel (hydroxypropylcellulose) (HPC)
[13] = dose: 200.0 mg/kg/injection, schedule: Q01DX009 (ip), vehicle: Klucel (hydroxypropylcellulose) (HPC)
[14] = dose: 400.0 mg/kg/injection, schedule: Q01DX009 (ip), vehicle: Klucel (hydroxypropylcellulose) (HPC)
[15] = dose: 100.0 mg/kg/injection, schedule: Q04DX003 (ip), vehicle: saline with Tween-80
[16] = dose: 200.0 mg/kg/injection, schedule: Q04DX003 (ip), vehicle: saline with Tween-80
[17] = dose: 400.0 mg/kg/injection, schedule: Q04DX003 (ip), vehicle: saline with Tween-80

Measured: T/C

c1ccc([P+](C2=NNCC2)(c2ccccc2)c2ccccc2)cc1
inactive: dose: 6.25 mg/kg/injection, schedule: Q01DX009 (ip), vehicle: Klucel (hydroxypropylcellulose) (HPC) 105 % of control | dose: 12.5 mg/kg/injection, schedule: Q01DX009 (ip), vehicle: Klucel (hydroxypropylcellulose) (HPC) 118 % of control | dose: 25.0 mg/kg/injection, schedule: Q01DX009 (ip), vehicle: Klucel (hydroxypropylcellulose) (HPC) 105 % of control and 109 % of control

CC(C)(C)C(=O)NO
inactive: [1] 110 % of control | [2] 90 % of control | [3] 102 % of control

Cc1cc2c(cc1C)C1(c3ccc(Cl)cc3)OC2(c2ccc(Cl)cc2)C2C(=O)OC(=O)C21 (stereo unspecified)
inactive: [4] 94 % of control | [5] 92 % of control | dose: 400.0 mg/kg/injection, schedule: Q01DX001 (ip), vehicle: Klucel (hydroxypropylcellulose) (HPC) 97 % of control

Cc1ccc(S(=O)(=O)Nc2ccccc2-c2nc3ccc([N+](=O)[O-])cc3c(=O)o2)cc1
inactive: [6] 104 % of control | [7] 96 % of control

N#CCCN/N=C\c1ccc2c(c1)OCO2
inactive: [8] 95 % of control | [9] 97 % of control | [10] 95 % of control | [11] 95 % of control

CN(C)CC1(c2ccccc2)CC[N+](C)(C)C1 (stereo unspecified)
inactive: dose: 75.0 mg/kg/injection, schedule: Q01DX001 (ip), vehicle: saline 89 % of control | dose: 150.0 mg/kg/injection, schedule: Q01DX001 (ip), vehicle: saline 93 % of control

O=C(NCCCl)NC1CC1c1ccccc1 (stereo unspecified)
inactive: dose: 75.0 mg/kg/injection, schedule: Q01DX001 (ip), vehicle: other 97 % of control | dose: 150.0 mg/kg/injection, schedule: Q01DX001 (ip), vehicle: other 103 % of control

Cc1cccc(C)c1NC(=O)Nc1ccc(C(=O)O)cc1
inactive: [12] 101 % of control | [13] 108 % of control | [14] 103 % of control

COc1ccc(C2=NC(=O)C(C)(C(C)=O)O2)cc1 (stereo unspecified)
inactive: [9] 93 % of control | [10] 90 % of control | [11] 90 % of control

CC(=O)NS(=O)(=O)c1ccc(N)cc1
inactive: [6] 94 % of control | [15] 98 % of control | [7] 94 % of control | [16] 98 % of control | dose: 400.0 mg/kg/injection, schedule: Q01DX009 (ip), vehicle: saline with Tween-80 95 % of control | [17] 100 % of control

Cc1cc(C(c2ccccc2)c2ccccc2)cc(C)c1OCc1ccccc1
inactive: dose: 50.0 mg/kg/injection, schedule: Q01DX001 (ip), vehicle: Klucel (hydroxypropylcellulose) (HPC) 93 % of control | [4] 93 % of control | [5] 90 % of control

C[As](C)N
inactive: dose: 10.0 mg/kg/injection, schedule: Q01DX001 (ip), vehicle: saline 102 % of control | dose: 15.0 mg/kg/injection, schedule: Q01DX001 (ip), vehicle: saline 93 % of control | dose: 20.0 mg/kg/injection, schedule: Q01DX001 (ip), vehicle: saline 120 % of control | dose: 30.0 mg/kg/injection, schedule: Q01DX001 (ip), vehicle: saline 91 % of control | dose: 60.0 mg/kg/injection, schedule: Q01DX001 (ip), vehicle: saline 90 % of control

COc1ccc(/C=N/NC(=O)C[n+]2ccccc2)c(OC)c1
inactive: dose: 25.0 mg/kg/injection, schedule: Q01DX009 (ip), vehicle: saline with Tween-80 110 % of control | dose: 50.0 mg/kg/injection, schedule: Q01DX009 (ip), vehicle: saline with Tween-80 101 % of control | [6] 103 % of control | [15] 94 % of control

Oc1ccc(Br)cc1/C=N\NC(=S)Nc1ccc2cn[nH]c2c1
inactive: dose: 25.0 mg/kg/injection, schedule: Q01DX001 (ip), vehicle: carboxymethylcellulose (CMC) 90 % of control | dose: 50.0 mg/kg/injection, schedule: Q01DX001 (ip), vehicle: carboxymethylcellulose (CMC) 101 % of control | dose: 100.0 mg/kg/injection, schedule: Q01DX001 (ip), vehicle: carboxymethylcellulose (CMC) 93 % of control | dose: 200.0 mg/kg/injection, schedule: Q01DX001 (ip), vehicle: carboxymethylcellulose (CMC) 86 % of control | dose: 400.0 mg/kg/injection, schedule: Q01DX001 (ip), vehicle: carboxymethylcellulose (CMC) 107 % of control

O=Cc1ccc(OC(=O)Nc2ccccc2)cc1
inactive: [6] 92 % of control | [15] 105 % of control | [7] 87 % of control | [16] 94 % of control | [17] 93 % of control

O=S(=O)(Cc1ccccc1)Cc1ccccc1
inactive: [8] 101 % of control | [9] 95 % of control | [15] 96 % of control | [10] 95 % of control | [16] 100 % of control | [11] 91 % of control | [17] 100 % of control

CCOC(=O)c1ccc(NCC(C)(C)N(C)C)cc1
inactive: dose: 12.0 mg/kg/injection, schedule: Q01DX009 (ip), vehicle: saline 93 % of control | dose: 12.0 mg/kg/injection, schedule: Q04DX003 (ip), vehicle: saline 93 % of control | dose: 25.0 mg/kg/injection, schedule: Q01DX009 (ip), vehicle: saline 89 % of control | dose: 25.0 mg/kg/injection, schedule: Q04DX003 (ip), vehicle: saline 98 % of control | dose: 50.0 mg/kg/injection, schedule: Q01DX009 (ip), vehicle: saline 90 % of control | dose: 50.0 mg/kg/injection, schedule: Q04DX003 (ip), vehicle: saline 95 % of control

CN(C)C(=S)SSC(=S)N(C)C
inactive: dose: 50.0 mg/kg/injection, schedule: Q01DX009 (ip), vehicle: Klucel (hydroxypropylcellulose) (HPC) 92 % of control | [12] 99 % of control | dose: 100.0 mg/kg/injection, schedule: Q04DX003 (ip), vehicle: other 95 % of control | dose: 200.0 mg/kg/injection, schedule: Q04DX003 (ip), vehicle: other 103 % of control | dose: 400.0 mg/kg/injection, schedule: Q04DX003 (ip), vehicle: other 96 % of control

Cc1cccc(Cl)c1OCC(=O)Nc1ccccc1
inactive: dose: 100.0 mg/kg/injection, schedule: Q04DX002 (ip), vehicle: saline with Tween-80 101 % of control | dose: 200.0 mg/kg/injection, schedule: Q04DX002 (ip), vehicle: saline with Tween-80 104 % of control

Cc1ccc(S(=O)(=O)OC2COCOC2C2(OS(=O)(=O)c3ccc(C)cc3)COCOC2)cc1 (stereo unspecified)
inactive: [1] 101 % of control | [2] 101 % of control | [3] 104 % of control

CCCCCCCCCCCCCCCCCCN1C(=O)C2C(C1=O)C1(Cl)C(Cl)=C(Cl)C2(Cl)C1(Cl)Cl (stereo unspecified)
inactive: [15] 96 % of control | [16] 93 % of control

C=C1C(=O)OC2C1C(O)C(OC(=O)/C(C)=C\C)C(C)=C1CC3OC3(C)C12 (stereo unspecified)
inactive: dose: 25.0 mg/kg/injection, schedule: Q01DX001 (ip), vehicle: saline with Tween-80 94 % of control | dose: 50.0 mg/kg/injection, schedule: Q01DX001 (ip), vehicle: saline with Tween-80 105 % of control

Cc1cc(OC(=O)/C=C/C(=O)Oc2cc(C)c(Cl)c(C)c2)cc(C)c1Cl
inactive: [12] 97 % of control | dose: 100.0 mg/kg/injection, schedule: Q04DX003 (ip), vehicle: Klucel (hydroxypropylcellulose) (HPC) 105 % of control | [13] 95 % of control | dose: 200.0 mg/kg/injection, schedule: Q04DX003 (ip), vehicle: Klucel (hydroxypropylcellulose) (HPC) 104 % of control | [14] 97 % of control | dose: 400.0 mg/kg/injection, schedule: Q04DX003 (ip), vehicle: Klucel (hydroxypropylcellulose) (HPC) 104 % of control

CC(C)(C)C(=O)CC(=O)C(C)(C)C.CC(C)(C)C(=O)CC(=O)C(C)(C)C.[Zn]
inactive: [15] 97 % of control | [16] 95 % of control

CC[C@H](CC[C@@H](C)[C@H]1CC[C@H]2[C@@H]3CC=C4C[C@@H](OC(=O)CSC(CC(=O)O)C(=O)O)CC[C@]4(C)[C@H]3CC[C@]12C)C(C)C (stereo partly specified)
inactive: dose: 100.0 mg/kg/injection, schedule: Q01DX001 (ip), vehicle: water 98 % of control | dose: 200.0 mg/kg/injection, schedule: Q01DX001 (ip), vehicle: water 86 % of control | dose: 400.0 mg/kg/injection, schedule: Q01DX001 (ip), vehicle: water 93 % of control
